Data: patent US20240336659A1, “CELL-PENETRATING PEPTIDE, ANTI-CANCER PEPTIDE, AND PHARMACEUTICAL COMPOSITION FOR PREVENTING OR TREATING CANCER, COMPRISING SAME” (ONECUREGEN CO., LTD., priority 2021, published 2024)
Positions of bridges follow the written chain, without caps; N, C: chain ends. No end group written: not given here.

Tests used:
[1] = test system: stomach cancer cell lines NUGC3; test: Mouse xenograft experiment (tumor formation); type: in vivo, Balb-c/nude mouse; conditions: intraperitoneally 10 mg/kg once a day
Protocol: A mouse xenograft experiment was performed to analyze a tumor formation inhibitory effect of cancer therapeutic peptide fragments. Specifically, 5×10^6 stomach cancer cell lines NUGC3 were transplanted by subcutaneous injection into a flank site of a 6-week-old female Balb-c/nude mouse, and after one week (average tumor size 100 mm^3), Vehicle (0.9% saline), OCP5 (SEQ ID NO: 12), OCP5-VGLL1S84-15C (SEQ ID NO: 29), or OCP5-VGLL1S84-7C (SEQ ID NO: 33) was each administered intraperitoneally at 10 mg/kg once a day. Tumor size was measured with a digital caliper at 2-day intervals from the start of drug administration, and the tumor size (tumor size (mm^3)=long axis x short axis2) was calculated. The experiment was terminated when the average tumor size of the OCP5-administered group was 1,000 mm3, and then the tumor was extracted, and the tumor weight was measured.

MMP9 [2] = test: MMP9 Western blot of extracted xenograft tumor tissue; type: in vivo; conditions: extracted NUGC3 xenograft tumor, 10 mg/kg once a day
Protocol: After completion of the in vivo xenograft experiment in Example 6-1, changes in the protein expression level of MMP9 were measured in the extracted tumor tissue using immunohistochemical staining and Western blot methods. In addition, the amount of MMP9 protein in the tumor tissue was analyzed by Western blot experiment. The protein amount in the sample was quantified using a BCA assay method, and 20 μg of each sample was loaded, electrophoresed on SDS-PAGE, and then transferred to a nitrocellulose membrane. The membrane was blocked in a 5% skim milk solution for 1 hour, and then placed in MMP9 (1:1000, Abcam #ab76003) or ACTB (1:10,000, SantaCruz #sc-47778) antibody solution and reacted overnight at 4° C. The next day, the primary antibody was removed, the membrane was washed with a TBST buffer, and a HRP-conjugated anti-mouse or anti-rabbit secondary antibody was diluted at 1:10,000 in the 5% skim milk solution, and then reacted with the membrane at room temperature for 1 hour. The blot reacted with a SuperSignalTM West Pico Chemiluminescent substrate (ThermoFisher #34580) and analyzed on the ChemiDoc XRS+ System (Bio-Rad Laboratories, #1708265).

MMP9 [3] = test: MMP9 immunohistochemical staining of extracted xenograft tumor tissue; type: in vivo; conditions: extracted NUGC3 xenograft tumor, 10 mg/kg once a day
Protocol: After completion of the in vivo xenograft experiment in Example 6-1, changes in the protein expression level of MMP9 were measured in the extracted tumor tissue using immunohistochemical staining and Western blot methods. The immunohistochemical staining was performed by the following method. The extracted tumor tissue was immobilized with 4% paraformaldehyde and embedded in paraffin, and then the tissue was sectioned at 4 μm thickness and attached to a glass slide. The tissue was hydrated with a xylene-ethanol reaction, and then reacted with an MMP9 antibody (1:100) at 4° C. overnight. The next day, the tissue sections were washed with PBS and reacted with a secondary antibody HRP-conjugated anti-rabbit antibody (1:100) at room temperature for 1 hour, and then the antibody was washed with PBS, and the reacted MMP9 was searched through the reaction by a DAB substrate kit (Vecotr Laboratories, #SK-4100). After DAB washing, nuclear staining was performed with a hematoxylin solution, and the tissue was emulsified through an ethanol-xylene reaction and then mounted. Tissue photographs were obtained using a Nikon TS2 microscope.

[4] = test system: stomach cancer cell line NUGC2; test: Cell growth inhibition (sulforhodamine B staining); type: cell-based; conditions: NUGC2, 10 μM
Protocol: (§1) Specifically, in order to confirm cell growth ability, a stomach cancer cell line NUGC3 and a breast cancer cell line SK-BR-3 were each subcultured in a 96-well plate, and the next day, peptide fragments Con, 7, and CC of Table 2 were treated with 100 μM each to the cell lines. After 72 hours, the cells were immobilized with a 10% trichloroacetic acid solution, and then stained the cell with a 0.4% sulforhodamine B solution for 1 hour, washed with acetic acid, and dried. Thereafter, the dried cells were dissolved in a 10 mM Tris solution and absorbance was measured at 510 nm using an ELISA plate reader.
(§2) It was investigated whether the cancer therapeutic peptide synthesized in this study could be used to treat various cancers other than stomach cancer. For this purpose, the cancer therapeutic peptides OCP and OCP5-VGLLIS84-7C were treated in stomach cancer cell lines […] and AGS, lung cancer cell lines H460 and A549, pancreatic cancer cell lines AsPC-1 and MIAPaca-1, and breast cancer cell lines MCF7 and MDA-MB-231 at concentrations of 10 μM. Thereafter, as a result of analysis in the same manner as in Example 1, the growth inhibitory efficacy of OCP5-VGLLIS84-7C cancer cells was confirmed compared to the control OCP5 (FIG. 14).

[5] = test system: lung cancer cell line H460; test: Cell growth inhibition (sulforhodamine B staining); type: cell-based; conditions: H460, 10 μM
Protocol: as §1, §2

[6] = test system: breast cancer cell line MCF7; test: Cell growth inhibition (sulforhodamine B staining); type: cell-based; conditions: MCF7, 10 μM
Protocol: as §1, §2

[7] = test system: lung cancer cell line A549; test: Cell growth inhibition (sulforhodamine B staining); type: cell-based; conditions: A549, 10 μM
Protocol: as §1, §2

[8] = test system: pancreatic cancer cell line MIAPaca-1; test: Cell growth inhibition (sulforhodamine B staining); type: cell-based; conditions: MIAPaca-1, 10 μM
Protocol: as §1, §2

[9] = test system: pancreatic cancer cell line AsPC-1; test: Cell growth inhibition (sulforhodamine B staining); type: cell-based; conditions: AsPC-1, 10 μM
Protocol: as §1, §2

[10] = test system: breast cancer cell line MDA-MB-231; test: Cell growth inhibition (sulforhodamine B staining); type: cell-based; conditions: MDA-MB-231, 10 μM
Protocol: as §1, §2

[11] = test system: stomach cancer cell line AGS; test: Cell growth inhibition (sulforhodamine B staining); type: cell-based; conditions: 10 μM
Protocol: as §1
(§3) Specifically, in order to confirm the cancer cell inhibition enhancing effect by enhancing the cell permeability of OCP5 among the novel synthesized CPPs, a cancer therapeutic peptide fragment represented by SEQ ID NO: 6 including the existing TAT and a cancer therapeutic peptide fragment represented by SEQ ID NO: 31 including the novel synthesized OCP5 were used. The stomach cancer cell lines NUGC3 and AGS, the breast cancer cell line SK-BR-3, and the pancreatic cancer cell line Capan-1 were treated with 25 μM SEQ ID NO: 6 and 100 μM SEQ ID NO: 31 for 72 hours, respectively, and the cancer cell growth inhibitory effects were compared in the same manner as in Example 1. […]

[12] = test system: stomach cancer cell lines NUGC3; test: Wound healing assay (cancer cell migration); type: cell-based; conditions: 10 μM
Protocol: In order to analyze the possibility of metastasis inhibitory efficacy of stomach cancer cells by anticancer therapeutic peptides, a wound healing assay was performed to evaluate a migration inhibitory effect of stomach cancer cells. Specifically, 5×10^4 stomach cancer cell lines NUGC3 were subcultured in a 24-well plate, and then the next day, scratches were made at the center of the cells, and 10 μM OCP5-VGLL1S84-7C (SEQ ID NO: 33) was mixed into the cell culture medium and administered. Real-time cell images were acquired through Cytation5 (Biotek), and the degree of cancer cell migration was analyzed by calculating the average area (wound width, B) of the scratch area and the degree (% Confluence, C) to which cells were filled.

[13] = test system: stomach cancer cell line NUGC3; test: Cell growth inhibition (sulforhodamine B staining); type: cell-based
Protocol: as §1
In order to compare the cancer cell growth inhibitory effects of cancer therapeutic peptides according to cell-penetrating peptides, the stomach cancer cell line NUGC3 was treated with 10 μM each of cancer therapeutic peptide fragments in Table 4, and the cancer cell growth inhibitory effects were screened in the same manner as in Example 1.
Specifically, in order to confirm the cancer cell inhibition enhancing effect by enhancing the cell permeability of OCP5 among the novel synthesized CPPs, a cancer therapeutic peptide fragment represented by SEQ ID NO: 6 including the existing TAT and a cancer therapeutic peptide fragment represented by SEQ ID NO: 31 including the novel synthesized OCP5 were used. The stomach cancer cell lines NUGC3 and AGS, the breast cancer cell line SK-BR-3, and the pancreatic cancer cell line Capan-1 were treated with 25 μM SEQ ID NO: 6 and 100 μM SEQ ID NO: 31 for 72 hours, respectively, and the cancer cell growth inhibitory effects were compared in the same manner as in Example 1. […] Through this, it was confirmed that the novel CPP may be applied more effectively than the existing TAT to inhibit the cancer cell growth by the anticancer peptides.
To analyze the cancer cell growth inhibitory effect according to a length of the anticancer peptide fragment, OCP9-VGLLIS84-7 (SEQ ID NO: 43), OCP9-VGLLIS84-9CC (SEQ ID NO: 46), and OCP9-VGLLIS84-15 (SEQ ID NO: 49) were treated for each concentration to analyze the growth inhibitory effects of stomach cancer cell lines NUGC3 and NCI-N87. When stomach cancer cells were treated with cancer therapeutic peptides, the cancer cell growth inhibitory efficacy was shown in a concentration-dependent manner. In addition, it was confirmed that the growth inhibitory effect on the stomach cancer cell lines increased as the length of the anticancer peptide fragment increased (FIG. 7).
Specifically, the cancer cell growth inhibitory effect according to partial or entire cyclization of the anticancer peptide fragment was analyzed. The stomach cancer cell line NUGC3 was treated with a CPP fragment OCP9 (SEQ ID NO: 16), a partially cyclized sequence […] (SEQ ID NO: 33), or a sequence OCP9-VGLLIS84-7CC (SEQ ID NO: 40) including an entirely cyclized anticancer peptide at different concentrations of 1, 2.5, 5, 10, and 20 μM, respectively, and the cancer cell growth inhibitory effects were compared in the same manner as in Example 1.

[14] = test system: breast cancer cell line SK-BR-3; test: Cell growth inhibition (sulforhodamine B staining); type: cell-based; conditions: SK-BR-3, 100 μM, 72 hours; compared with linear anticancer peptide (SEQ ID NO: 5)
Protocol: as §1, §3

Substance | tumor formation inhibitory effect compared to the vehicle group [1] | amount of MMP9 in tumor tissues (Western blot) (MMP9 [2]) | amount of MMP9 protein in the tumor (immunohistochemical staining) (MMP9 [3]) | growth inhibitory efficacy compared to the control OCP5 [4] | growth inhibitory efficacy compared to the control OCP5 [5] | growth inhibitory efficacy compared to the control OCP5 [6] | growth inhibitory efficacy compared to the control OCP5 [7] | growth inhibitory efficacy compared to the control OCP5 [8] | growth inhibitory efficacy compared to the control OCP5 [9] | growth inhibitory efficacy compared to the control OCP5 [10] | growth inhibitory efficacy compared to the control OCP5 [11] | migration of cancer cells (wound width, % Confluence) [12] | cancer cell growth inhibitory effect ([13]; NUGC3, 10 μM screening of Table 4 peptides) | cell growth inhibitory effect [14] | cell growth inhibitory effect ([13]; NUGC3, 100 μM, 72 hours, compared with linear anticancer peptide (SEQ ID NO: 5))
SIIFRIFLHLQK-CPNQWRYSSPWTKPQPC-RRR (SIIFRIFLHLQKCPNQWRYSSPWTKPQPCRRR; disulfide 13-29) [OCP5-VGLL1S84-15C] | 63% | reduced | significantly reduced | – | – | – | – | – | – | – | – | – | – | – | –
SIIFRIFLHLQK-CYSSPWTKC-RRR (SIIFRIFLHLQKCYSSPWTKCRRR; disulfide 13-21) [OCP5-VGLL1S84-7C] | 45% | reduced | significantly reduced | confirmed | confirmed | confirmed | confirmed | confirmed | confirmed | confirmed | confirmed | inhibited | significant cancer cell growth inhibitory effect | – | –
YGRKKRRQRRR-CYSSPWTKC (YGRKKRRQRRRCYSSPWTKC; disulfide 12-20) [SEQ ID NO: 6, TAT-cyclic anticancer peptide] | – | – | – | – | – | – | – | – | – | – | – | – | – | significantly superior | significantly superior
